Laboratory results from patent US11426405B2, “Inhibition of JAK-STAT signaling inhibits formation of neutrophil extracellular traps (NETs)” (The Brigham and Women's Hospital, Inc., priority 2017, dated 2022).
Values joined by “and” are separate entries in the source; they are usually repeats but may differ in a detail not shown here. Equal values may be shown once.

B1: DNase: deoxyribonuclease (DNase; Pulmozyme, Genentech), disrupts NET structures (protein, UniProt P24855 23-282, looked up)
Deoxyribonuclease-1: LKIAAFNIQTFGETKMSNATLVSYIVQILSRYDIALVQEVRDSHLTAVGKLLDNLNQDAPDTYHYVVSEPLGRNSYKERYLFVYRPDQVSAVDSYYYDDGCEPCGNDTFNREPAIVRFFSRFTEVREFAIVPLHAAPGDAVAEIDALYDVYLDVQEKWGLEDVMLMGDFNAGCSYVRPSQWSSIRLWTSPTFQWLIPDSADTTATPTHCAYDRIVVAGMLLRGAVVPDSALPFNFQAAYGLSDQLAQAISDHYPVEVMLK

What was measured:
[1] = system: neutrophils from patients with MPNs; assay: NET formation in neutrophils from MPN patients receiving a JAK inhibitor; type: cell-based, human; details: individual JAK inhibitor-treated MPN patients; 4 μM ionomycin stimulation; some patients also on ASA or Hydrea
Excerpt: Whole blood was collected into ethylenediaminetetraacetic acid (EDTA)-coated tubes. Patients and controls were excluded if they had conditions that are known or suspected to affect NET formation such as active infection, active cancer (37), history of an autoimmune disease (38), treatment with immunosuppressive or anti-inflammatory drugs or history of diabetes (29). In addition, patients with recent history of infection, trauma or surgery (3 months before blood draw) were excluded. Therapy with acetylsalicylic acid (aspirin), hydroxyurea or anagrelide was allowed. […]
Neutrophil isolation and NET formation were carried out as previously described (39). […] Purity of cells was >95% as determined by Wright-Giemsa staining (FIG. 5B). For the screening NET assay, NET-bound neutrophil elastase was quantified using an available commercial kit according to manufacturer's instructions (Cayman chemical). […]
Fixed cells were processed as detailed above. Immunostaining, fluorescence microscopy and NET quantification procedures were similar for human and mouse specimens. […]
Images were acquired on an Axiovert 200M wide-field fluorescence microscope (Zeiss) coupled to an AxioCam MR3 monochromatic CCD camera (Zeiss) using a Zeiss Plan-Neofluar 20×/0.4 Con Ph2 objective lens with the Zeiss AxioVision software (version 4.6.3.0). […]

[2] = system: Jak2^WT and Jak2^V617F mice; assay: Venous stenosis model: partial ligation of the inferior vena cava; type: in vivo, mouse; details: for Thrombus formation rate (clots/mice): DNase 50 μg i.p. and 10 μg i.v. after surgery
Description: Sections were allowed to come to room temperature, before rinsing in PBS with 0.1% Tween 20 (PBST). Sections were blocked for 1 hour at room temperature with 10% FBS in PBST in a humidified chamber. Sections were incubated in the same chamber overnight at 4° C. with the primary antibodies described above against Ly6G and H3^cit in 10% FBS in PBST. Slides were rinsed in PBST before incubating with the secondary antibody under the same conditions as used for the primary antibody (goat anti-rat Ig (IgG) (Alexa555, 1.5 μg/mL) or donkey anti-rabbit IgG (Alexa647, 1.5 μg/mL). After a further wash in PBST sections were stained with DAPI and mounted as described above. Sections were visualized using Axiolmager D1 (Carl Zeiss Microscopy) and images taken using Axiocam MRc Camera (Carl Zeiss Microscopy). Zen software 2.3 (version 13) was used to analyze images. For the final images used in the figures, Alexa647 was represented using green.
After bone marrow harvest, c-Kit positive marrow cells were obtained from VavCre/Jak2^V617F KI mice using CD117 Microbeads according to manufacturer's instructions (Miltenyi Bitotec).
DNase 1 (Pulmozyme, Genentech) was diluted in sterile saline and injected immediately after surgery (50 μg intraperitoneally and 10 μg intravenously via tail vein). […] Mice were assessed for thrombosis at 4 hours.

Molecule	% NET formation [1]	Thrombosis rate at 2 hours post-IVC ligation ([2]; Jak2^V617F mice, ruxolitinib 90 mg/kg twice a day for 72 hours, vehicle 45%) [%]	Thrombosis rate at 4 hours post-IVC ligation ([2]; Jak2^V617F mice, ruxolitinib 90 mg/kg twice a day for 72 hours, vehicle 71%) [%]	Thrombus formation rate (clots/mice) ([2]; Jak2^V617F mice, vehicle 5/7, p=0.007)	Thrombus formation rate (clots/mice) ([2]; Jak2^WT mice, vehicle 5/8, p=0.06)
N#CC[C@H](C1CCCC1)n1cc(-c2ncnc3[nH]ccc23)cn1 [Ruxolitinib]	1.5% and 5.9% and 5.4% and 5.5%	0	21	–	–
C[C@H](Nc1cc(-c2cnn(C)c2)cc(Nc2cnccn2)n1)c1ccc(F)cc1 [NS-018]	6.9%	–	–	–	–
B1	–	–	–	0/8	1/7
